Where only a bound is given, the exact number is not on record here.

As usually defined, the EC50 is the concentration needed to bring the measured effect to its halfway point.

One assay concerns Human Monocytic Leukemia MV4-11. The assay can be described thus: Cell proliferation experiment (Alarm blue, 72 h, EC50). In kind it is cell-based. To be noted: Homo sapiens, MV4-11, MV4;11 cells. An outline of the steps: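 EC50 values derive from Alamar blue fluorescence measured after cells in 96-well plates were incubated 72 h with compound diluted 5-fold per step in complete medium.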
In turn, `CC[C@@H]1C(=O)N(C)c2cnc(Nc3ccc(C(=O)NCc4cn(CCNCCOCC(=O)Nc5cccc6c5CN(C5CCC(=O)NC5=O)C6=O)nn4)cc3OC)nc2N1Cc1cc(Cl)cs1` (stereo partly shown) [UB-180763] yielded an EC50 of 0.01 to 0.1 µM.

The molecule `O=C1CCC(N2Cc3c(NC(=O)COCCNCCn4cc(CNC(=O)[C@]5(Cc6cccc(Nc7nccs7)n6)CC[C@@H](Oc6cccc(Cl)c6F)CC5)nn4)cccc3C2=O)C(=O)N1` (stereo partly shown) [UB-180744] gave an EC50 of 0.1 to 1 µM.

For the molecule `Cc1ncsc1-c1ccc(CNC(=O)[C@@H]2C[C@@H](O)CN2C(=O)[C@@H](NC(=O)COCCNC(=O)c2ccc(Nc3ncc4c(n3)-c3ccc(Cl)cc3C(c3c(F)cccc3F)=NC4)cc2)C(C)(C)C)cc1` [UB-180532], the EC50 fell in the range of 0.1 to 1 µM.

Consider `O=C1CCC(N2Cc3c(NC(=O)CCCCCNCCOCCOCCOCCNC(=O)c4ccc(Nc5ncc6c(n5)-c5ccc(Cl)cc5C(c5c(F)cccc5F)=NC6)cc4)cccc3C2=O)C(=O)N1` (stereo not shown) [UB-180770], for which the EC50 fell in the range of 0.1 to 1 µM.

`Cc1ncsc1-c1ccc(CNC(=O)[C@@H]2C[C@@H](O)CN2C(=O)[C@@H](NC(=O)COCCCCNC(=O)c2ccc(Nc3ncc4c(n3)-c3ccc(Cl)cc3C(c3c(F)cccc3F)=NC4)cc2)C(C)(C)C)cc1` [UB-180558] displayed an EC50 of 0.1 to 1 µM.

`CC[C@@H]1C(=O)N(C)c2cnc(Nc3ccc(C(=O)NCCOCCOCCNCC(=O)Nc4cccc5c4CN(C4CCC(=O)NC4=O)C5=O)cc3OC)nc2N1C1CCCC1` (stereo partly shown) [UB-180814] yielded an EC50 of 0.01 to 0.1 µM.

Consider `O=C1CCC(N2Cc3c(NC(=O)CCNCCOCCN4CCC(NC(=O)[C@]5(Cc6cccc(Nc7nccs7)n6)CC[C@@H](Oc6cccc(Cl)c6F)CC5)CC4)cccc3C2=O)C(=O)N1` (stereo partly shown) [UB-180776], for which the EC50 was in the range of 0.1 to 1 µM.

Molecule `O=C1CCC(N2Cc3c(NC(=O)CCCNCCOCCOCCOCCNC(=O)c4ccc(Nc5ncc6c(n5)-c5ccc(Cl)cc5C(c5c(F)cccc5F)=NC6)cc4)cccc3C2=O)C(=O)N1` (stereo not shown) [UB-180773] came in with an EC50 of 0.1 to 1 µM.

`O=C1CCC(N2Cc3c(NC(=O)CCCCNCCOCCOCCOCCNC(=O)[C@]4(Cc5cccc(Nc6nccs6)n5)CC[C@@H](Oc5cccc(Cl)c5F)CC4)cccc3C2=O)C(=O)N1` (stereo partly shown) [UB-180778] registered an EC50 of more than 1 µM.

For the molecule `COc1cc(C(=O)NCCOCCNCCC(=O)Nc2cccc3c2CN(C2CCC(=O)NC2=O)C3=O)ccc1Nc1ncc2c(n1)N(C(C)C)[C@H](C)C(=O)N2C` (stereo partly shown) [UB-180697], the EC50 fell in the range of 0.1 to 1 µM.

`Cc1ncsc1-c1ccc(CNC(=O)[C@@H]2C[C@@H](O)CN2C(=O)[C@@H](NC(=O)COCCNCCn2cc(COCCOCCNC(=O)c3ccc(Nc4ncc5c(n4)-c4ccc(Cl)cc4C(c4c(F)cccc4F)=NC5)cc3)nn2)C(C)(C)C)cc1` [UB-180788]: the concentration for a half-maximal effect (EC50) was more than 1 µM.

Consider `CC[C@@H]1C(=O)N(C)c2cnc(Nc3ccc(C(=O)NCCOCCOCCOCCOCCNCCC(=O)Nc4cccc5c4CN(C4CCC(=O)NC4=O)C5=O)cc3OC)nc2N1C1CCCC1` (stereo partly shown) [UB-180813], for which the EC50 was in the range of 0.01 to 0.1 µM.

`CC[C@@H]1C(=O)N(C)c2cnc(Nc3ccc(C(=O)NCCNCC(=O)Nc4cccc5c4CN(C4CCC(=O)NC4=O)C5=O)cc3OC)nc2N1C1CCCC1` (stereo partly shown) [UB-180694] came in with an EC50 of 0.1 to 1 µM.

Molecule `O=C1CCC(N2Cc3c(NC(=O)CCCNCCOCCOCCOCCNC(=O)[C@]4(Cc5cccc(Nc6nccs6)n5)CC[C@@H](Oc5cccc(Cl)c5F)CC4)cccc3C2=O)C(=O)N1` (stereo partly shown) [UB-180779] showed an EC50 of more than 1 µM.

The molecule `CC[C@@H]1C(=O)N(C)c2cnc(Nc3ccc(C(=O)NCCOCCNCCCCCCC(=O)Nc4cccc5c4CN(C4CCC(=O)NC4=O)C5=O)cc3OC)nc2N1Cc1ccc(Br)cc1` (stereo partly shown) [UB-180653] had a concentration for a half-maximal effect (EC50) of 0.1 to 1 µM.

`CC[C@@H]1c2c(C#N)ncn2-c2cnc(Nc3ccc(C(=O)NCCNc4cccc5c4CN(C4CCC(=O)NC4=O)C5=O)cc3OC)nc2N1C1CCCC1` (stereo partly shown) [UB-180608] registered an EC50 of 0.1 to 1 µM.

`CC[C@@H]1C(=O)N(C)c2cnc(Nc3ccc(C(=O)NCc4cn(CCN(C)CCCC(=O)Nc5cccc6c5CN(C5CCC(=O)NC5=O)C6=O)nn4)cc3OC)nc2N1C1CCCC1` (stereo partly shown) [UB-180716] showed an EC50 of less than 0.01 µM.

For the molecule `Cc1ncsc1-c1ccc(CNC(=O)[C@@H]2C[C@@H](O)CN2C(=O)[C@@H](NC(=O)CCOCCCOCCOCCNC(=O)c2ccc(Nc3ncc4c(n3)-c3ccc(Cl)cc3C(c3c(F)cccc3F)=NC4)cc2)C(C)(C)C)cc1` [UB-180609], the EC50 is 0.01 to 0.1 µM.

`CC[C@@H]1C(=O)N(C)c2cnc(Nc3ccc(C(=O)NC4CCN(CCOCCN(CC(=O)Nc5cccc6c5CN(C5CCC(=O)NC5=O)C6=O)C(N)=O)CC4)cc3OC)nc2N1C1CCCC1` (stereo partly shown) [UB-180840]: the EC50 lay within 0.01 to 0.1 µM.

Molecule `CC[C@@H]1C(=O)N(C)c2cnc(Nc3ccc(C(=O)NCCOCCNCCCCC(=O)Nc4cccc5c4CN(C4CCC(=O)NC4=O)C5=O)cc3OC)nc2N1C1CCCC1` (stereo partly shown) [UB-180657] returned an EC50 of 0.01 to 0.1 µM.

With `Cc1ncsc1-c1ccc(CNC(=O)[C@@H]2C[C@@H](O)CN2C(=O)[C@@H](NC(=O)CCNC(=O)c2ccc(Nc3ncc4c(n3)-c3ccc(Cl)cc3C(c3c(F)cccc3F)=NC4)cc2)C(C)(C)C)cc1` [UB-180613], the EC50 lay within 0.1 to 1 µM.

As to `Cc1ncsc1-c1ccc(CNC(=O)[C@@H]2C[C@@H](O)CN2C(=O)[C@@H](NC(=O)COCCCCNC(=O)[C@]2(Cc3cccc(Nc4nccs4)n3)CC[C@@H](Oc3cccc(Cl)c3F)CC2)C(C)(C)C)cc1` [UB-180589], the EC50 was more than 1 µM.

In the case of `CC[C@@H]1C(=O)N(C)c2cnc(Nc3ccc(C(=O)NC4CCN(CCOCCN(CC(=O)Nc5cccc6c5CN(C5CCC(=O)NC5=O)C6=O)C(=O)OC)CC4)cc3OC)nc2N1C1CCCC1` (stereo partly shown) [UB-180833], the EC50 is 0.01 to 0.1 µM.

`Cc1ncsc1-c1ccc(CNC(=O)[C@@H]2C[C@@H](O)CN2C(=O)[C@H](NC(=O)CCCNCCn2cc(COCCOCCNC(=O)c3ccc(Nc4ncc5c(n4)-c4ccc(Cl)cc4C(c4c(F)cccc4F)=NC5)cc3)nn2)C(C)(C)C)cc1` [UB-180787]: the EC50 is more than 1 µM.

In the case of `CC[C@@H]1c2c(C#N)ncn2-c2cnc(Nc3ccc(C(=O)NCCC(=O)Nc4cccc5c4CN(C4CCC(=O)NC4=O)C5=O)cc3OC)nc2N1C1CCCC1` (stereo partly shown) [UB-180621], the EC50 was more than 1 µM.

Turning to `CC[C@@H]1C(=O)N(C)c2cnc(Nc3ccc(C(=O)NCCOCCOCCOCCNCCCCCC(=O)Nc4cccc5c4CN(C4CCC(=O)NC4=O)C5=O)cc3OC)nc2N1C1CCCC1` (stereo partly shown) [UB-180649], the EC50 lay within 0.01 to 0.1 µM.

For `Cc1ncsc1-c1ccc(CNC(=O)[C@@H]2C[C@@H](O)CN2C(=O)[C@@H](NC(=O)CCNCCOCCOCCOCCNC(=O)[C@]2(Cc3cccc(Nc4nccs4)n3)CC[C@@H](Oc3cccc(Cl)c3F)CC2)C(C)(C)C)cc1` [UB-180782], the EC50 is more than 1 µM.

As to `CC[C@@H]1C(=O)N(C)c2cnc(Nc3ccc(C(=O)NCc4cn(CCNCCCC(=O)Nc5cccc6c5CN(C5CCC(=O)NC5=O)C6=O)nn4)cc3OC)nc2N1Cc1ccc(Cl)s1` (stereo partly shown) [UB-180715], the 50% effective concentration (EC50) was 0.01 to 0.1 µM.

Consider `Cc1ncsc1-c1ccc(CNC(=O)[C@@H]2C[C@@H](O)CN2C(=O)[C@@H](NC(=O)CCNCCn2cc(COCCOCCNC(=O)c3ccc(Nc4ncc5c(n4)-c4ccc(Cl)cc4C(c4c(F)cccc4F)=NC5)cc3)nn2)C(C)(C)C)cc1` [UB-180786], for which the EC50 was more than 1 µM.

Molecule `COc1cc(C(=O)NCCCNCCCCCCCC(=O)Nc2cccc3c2CN(C2CCC(=O)NC2=O)C3=O)ccc1Nc1ncc2c(n1)N(Cc1ccc(Br)cc1)CC(C)(C)C(=O)N2C` (stereo not shown) [UB-180671] returned an EC50 of 0.1 to 1 µM.

The molecule `O=C1CCC(N2Cc3c(NC(=O)CCNCCOCCOCCNC(=O)c4ccc(Nc5ncc6c(n5)-c5ccc(Cl)cc5C(c5c(F)cccc5F)=NC6)cc4)cccc3C2=O)C(=O)N1` (stereo not shown) [UB-180777] showed an EC50 of 0.1 to 1 µM.

Consider `Cc1ncsc1-c1ccc(CNC(=O)[C@@H]2C[C@@H](O)CN2C(=O)[C@@H](NC(=O)CCOCCOCCNC(=O)c2ccc(Nc3ncc4c(n3)-c3ccc(Cl)cc3C(c3c(F)cccc3F)=NC4)cc2)C(C)(C)C)cc1` [UB-180536], for which the EC50 lay in the range of 0.1 to 1 µM.

The molecule `O=C1CCC(N2Cc3c(NC(=O)CNCCOCCOCCNC(=O)c4ccc(Nc5ncc6c(n5)-c5ccc(Cl)cc5C(c5c(F)cccc5F)=NC6)cc4)cccc3C2=O)C(=O)N1` (stereo not shown) [UB-180809] had an EC50 of 0.1 to 1 µM.

`Cc1ncsc1-c1ccc(CNC(=O)[C@@H]2C[C@@H](O)CN2C(=O)[C@@H](NC(=O)COCCOCCOCCNC(=O)[C@]2(Cc3cccc(Nc4nccs4)n3)CC[C@@H](Oc3cccc(Cl)c3F)CC2)C(C)(C)C)cc1` [UB-180584] came in with an EC50 of 0.1 to 1 µM.

Molecule `CC[C@@H]1C(=O)N(C)c2cnc(Nc3ccc(C(=O)NCCOCCOCCNCCC(=O)N[C@H](C(=O)N4C[C@H](O)C[C@H]4C(=O)NCc4ccc(-c5scnc5C)cc4)C(C)(C)C)cc3OC)nc2N1C1CCCC1` [UB-180619] yielded an EC50 of more than 1 µM.

For the molecule `O=C1CCC(N2Cc3c(NC(=O)CCCCNCCOCCOCCOCCNC(=O)c4ccc(Nc5ncc6c(n5)-c5ccc(Cl)cc5C(c5c(F)cccc5F)=NC6)cc4)cccc3C2=O)C(=O)N1` (stereo not shown) [UB-180772], the EC50 was more than 1 µM.

For `CC[C@@H]1C(=O)N(C)c2cnc(Nc3ccc(C(=O)NCCOCCOCCNc4cccc5c4CN(C4CCC(=O)NC4=O)C5=O)cc3OC)nc2N1Cc1ccc(Br)cc1` (stereo partly shown) [UB-180568], the concentration for a half-maximal effect (EC50) was 0.01 to 0.1 µM.

As for `CC[C@@H]1C(=O)N(C)c2cnc(Nc3ccc(C(=O)NC4CCN(CCOCCNCC(=O)Nc5cccc6c5CN(C5CCC(=O)NC5=O)C6=O)CC4)cc3OC)nc2N1Cc1cc(Cl)cs1` (stereo partly shown) [UB-180767], the EC50 lay within 0.01 to 0.1 µM.

Molecule `CN(CCOCCOCCOCCNC(=O)[C@]1(Cc2cccc(Nc3nccs3)n2)CC[C@@H](Oc2cccc(Cl)c2F)CC1)CC(=O)Nc1cccc2c1CN(C1CCC(=O)NC1=O)C2=O` (stereo partly shown) [UB-180836] returned an EC50 of 0.1 to 1 µM.

With `O=C1CCC(N2Cc3c(NC(=O)COCCOCCOCCNCCNC(=O)c4ccc(Nc5ncc6c(n5)-c5ccc(Cl)cc5C(c5c(F)cccc5F)=NC6)cc4)cccc3C2=O)C(=O)N1` (stereo not shown) [UB-180794], the EC50 was more than 1 µM.

Turning to `CC[C@@H]1c2c(C#N)ncn2-c2cnc(Nc3ccc(C(=O)NCCNc4cccc5c4C(=O)N(C4CCC(=O)NC4=O)C5=O)cc3OC)nc2N1C1CCCC1` (stereo partly shown) [UB-180607], the EC50 is 0.01 to 0.1 µM.

For `CC[C@@H]1C(=O)N(C)c2cnc(Nc3ccc(C(=O)NCCC(=O)Nc4cccc5c4CN(C4CCC(=O)NC4=O)C5=O)cc3OC)nc2N1C1CCCC1` (stereo partly shown) [UB-180618], the EC50 was more than 1 µM.

Still in this assay, the particulars now being: MV4;11 cells.
`CC[C@@H]1C(=O)N(C)c2cnc(Nc3ccc(C(=O)NC4CCN(CCOCCNCC(=O)Nc5cccc6c5CN(C5CCC(=O)NC5=O)C6=O)CC4)cc3OC)nc2N1Cc1ccc(C)s1` (stereo partly shown) [UB-180747]: the EC50 was in the range of 0.01 to 0.1 µM.

The values are drawn from patent US20210369853A1, “TARGETED PROTEASE DEGRADATION PLATFORM” (EUBULUS BIOTHERAPEUTICS INC., priority 2018, published 2021).
